Experimental data taken from publication PMC3111206, “Phase I study of PD 0332991, a cyclin-dependent kinase inhibitor, administered in 3-week cycles (Schedule 2/1)” (British Journal of Cancer, 2011).
Entries after “also recorded” stand apart in the source; their conditions may differ.

What was measured:
[1] = system: Rb-negative tumours; set-up: method as in Fry et al, 2004; details: in vivo; ref Fry et al, 2004; cited from earlier work
[2] = Safety assessment: adverse events and haematological toxicity graded by NCI CTCAE v3.0; type: in vivo, human; details: for Treatment-related Alopecia, All grades / Treatment-related Alopecia, Grade 3 / Treatment-related Anorexia, All grades / Treatment-related Anorexia, Grade 3 / Treatment-related Chills, All grades / Treatment-related Chills, Grade 3 / Treatment-related Constipation, All grades / Treatment-related Constipation, Grade 3 / Treatment-related Cough, All grades / Treatment-related Cough, Grade 3 / Treatment-related Diarrhoea, All grades / Treatment-related Diarrhoea, Grade 3 / Treatment-related Dyspnea, All grades / Treatment-related Dyspnea, Grade 3 / Treatment-related Epistaxis, All grades / Treatment-related Epistaxis, Grade 3 / Treatment-related Fatigue, All grades / Treatment-related Fatigue, Grade 3 / Treatment-related Flatulence, All grades / Treatment-related Flatulence, Grade 3 / Treatment-related Mucosal inflammation, All grades / Treatment-related Mucosal inflammation, Grade 3 / Treatment-related Muscular weakness, All grades / Treatment-related Muscular weakness, Grade 3 / Treatment-related Nausea, All grades / Treatment-related Nausea, Grade 3 / Treatment-related Peripheral oedema, All grades / Treatment-related Peripheral oedema, Grade 3 / Treatment-related Pyrexia, All grades / Treatment-related Pyrexia, Grade 3 / Treatment-related Rash, All grades / Treatment-related Rash, Grade 3 / Treatment-related Vomiting, All grades / Treatment-related Vomiting, Grade 3: all cohorts combined (N=33)
Protocol: (§1) Safety was assessed at baseline, at regular intervals throughout the study, and within 1 week following treatment discontinuation by recording AEs, haematological and biochemical parameters, and physical status (including ECOG performance status). Adverse event severity was graded using the National Cancer Institute Common Terminology Criteria for Adverse Events, version 3.0 ([Trotti et al, 2003]). Triplicate electrocardiograms (ECGs) ∼2 min apart were taken at baseline, 3 h post-dose on days 1, 8 and 15 of cycle 1, and on day 15 of subsequent cycles for up to six cycles.

[3] = system: Rb-negative cell lines; set-up: method as in Fry et al, 2004; details: ref Fry et al, 2004, cited from earlier work
[4] = system: absolute neutrophil count (ANC); assay: Pharmacodynamic Emax modelling of change in ANC vs individual AUC; type: in vivo; details: Homo sapiens, cycle 1, vs individual AUC, 30 patients, s.e. 11.2, 12.6% CV, read-out: Emax for ANC (change from baseline)
Protocol: (§2) To document the course of changes in absolute neutrophil count (ANC) and platelets over time during the first two cycles of treatment, an exploratory analysis of data available from the weekly safety laboratory tests was carried out. Possible relationships between PD 0332991 exposure and changes in (i) ANC and (ii) platelets were assessed further by fitting a simple model (without baseline) to determine the maximum […] (Emax).

[5] = system: Rb-positive human xenograft models; set-up: method as in Fry et al, 2004; details: several Rb-positive human xenograft models in vivo; ref Fry et al, 2004; cited from earlier work
[6] = system: platelets; assay: Pharmacodynamic Emax modelling of change in platelets vs individual AUC; type: in vivo; details: Homo sapiens, Platelet; cycle 1, vs individual AUC, 30 patients; s.e. 16.9; 18.3% CV; read-out: Emax for platelets (change from baseline)
Protocol: as §2

[7] = QTc interval from triplicate electrocardiograms; type: in vivo, human; details: Fridericia's correction
Protocol: as §1

[8] = system: Rb-positive solid tumours or non-Hodgkin's lymphoma; assay: Tumour response by RECIST v1.0; type: in vivo, human
Protocol: Tumour measurements derived from computed tomography or magnetic resonance imaging scans were obtained at baseline, after every 2 cycles during the study, and at the end of treatment. Tumour responses were evaluated based on Response Evaluation Criteria in Solid Tumors, version 1.0 ([Therasse et al, 2000]).

[9] = 200 mg QD, cycle 1, 20 patients
[10] = maximum toxicity grade, worsened vs baseline, all cohorts and all cycles (N=33)

## CC(=O)c1c(C)c2cnc(Nc3ccc(N4CCNCC4)cn3)nc2n(C2CCCC2)c1=O [PD 0332991]
[1]
  Activity against Rb-negative tumours: without activity
[2]; [9]
  Neutropenia, NCICTCAE Grade 0: 11 n
  Neutropenia, NCICTCAE Grade 1: 0 n
  Neutropenia, NCICTCAE Grade 2: 3 n
  Neutropenia, NCICTCAE Grade 3: 6 n
  Neutropenia, NCICTCAE Grade 4: 0 n
[2]; 200 mg QD, during cycle 1
  Patients with treatment interrupted following treatment-related AEs: eight
[2]; 225 mg QD, cycle 1, 6 patients
  Neutropenia, NCICTCAE Grade 0: 3 n
  Neutropenia, NCICTCAE Grade 1: 0 n
  Neutropenia, NCICTCAE Grade 2: 0 n
  Neutropenia, NCICTCAE Grade 3: 2 n
  Neutropenia, NCICTCAE Grade 4: 1 n
[2]; After cycle 1
  Treatment-related Alopecia, All grades: 2 (6) n (%)
  Treatment-related Alopecia, Grade 3: 0 n (%)
  Treatment-related Anorexia, All grades: 3 (9) n (%)
  Treatment-related Anorexia, Grade 3: 0 n (%)
  Treatment-related Chills, All grades: 2 (6) n (%)
  Treatment-related Chills, Grade 3: 0 n (%)
  Treatment-related Constipation, All grades: 3 (9) n (%)
  Treatment-related Constipation, Grade 3: 0 n (%)
  Treatment-related Cough, All grades: 2 (6) n (%)
  Treatment-related Cough, Grade 3: 0 n (%)
  Treatment-related Diarrhoea, All grades: 10 (30) n (%)
  Treatment-related Diarrhoea, Grade 3: 0 n (%)
  Treatment-related Dyspnea, All grades: 1 (3) n (%)
  Treatment-related Dyspnea, Grade 3: 0 n (%)
  Treatment-related Epistaxis, All grades: 4 (12) n (%)
  Treatment-related Epistaxis, Grade 3: 0 n (%)
  Treatment-related Fatigue, All grades: 10 (30) n (%)
  Treatment-related Fatigue, Grade 3: 1 (3) n (%)
  Treatment-related Flatulence, All grades: 3 (9) n (%)
  Treatment-related Flatulence, Grade 3: 0 n (%)
  Treatment-related Mucosal inflammation, All grades: 3 (9) n (%)
  Treatment-related Mucosal inflammation, Grade 3: 0 n (%)
  Treatment-related Muscular weakness, All grades: 2 (6) n (%)
  Treatment-related Muscular weakness, Grade 3: 0 n (%)
  Treatment-related Nausea, All grades: 5 (15) n (%)
  Treatment-related Nausea, Grade 3: 1 (3) n (%)
  Treatment-related Peripheral oedema, All grades: 2 (6) n (%)
  Treatment-related Peripheral oedema, Grade 3: 0 n (%)
  Treatment-related Pyrexia, All grades: 2 (6) n (%)
  Treatment-related Pyrexia, Grade 3: 0 n (%)
  Treatment-related Rash, All grades: 2 (6) n (%)
  Treatment-related Rash, Grade 3: 0 n (%)
  Treatment-related Vomiting, All grades: 2 (6) n (%)
  Treatment-related Vomiting, Grade 3: 1 (3) n (%)
[2]; Cycle 1
  Treatment-related Alopecia, All grades: 0 n (%)
  Treatment-related Alopecia, Grade 3: 0 n (%)
  Treatment-related Anorexia, All grades: 1 (3) n (%)
  Treatment-related Anorexia, Grade 3: 0 n (%)
  Treatment-related Chills, All grades: 0 n (%)
  Treatment-related Chills, Grade 3: 0 n (%)
  Treatment-related Constipation, All grades: 4 (12) n (%)
  Treatment-related Constipation, Grade 3: 0 n (%)
  Treatment-related Cough, All grades: 0 n (%)
  Treatment-related Cough, Grade 3: 0 n (%)
  Treatment-related Diarrhoea, All grades: 6 (18) n (%)
  Treatment-related Diarrhoea, Grade 3: 0 n (%)
  Treatment-related Dyspnea, All grades: 3 (9) n (%)
  Treatment-related Dyspnea, Grade 3: 0 n (%)
  Treatment-related Epistaxis, All grades: 0 n (%)
  Treatment-related Epistaxis, Grade 3: 0 n (%)
  Treatment-related Fatigue, All grades: 11 (33) n (%)
  Treatment-related Fatigue, Grade 3: 0 n (%)
  Treatment-related Flatulence, All grades: 0 n (%)
  Treatment-related Flatulence, Grade 3: 0 n (%)
  Treatment-related Mucosal inflammation, All grades: 0 n (%)
  Treatment-related Mucosal inflammation, Grade 3: 0 n (%)
  Treatment-related Muscular weakness, All grades: 0 n (%)
  Treatment-related Muscular weakness, Grade 3: 0 n (%)
  Treatment-related Nausea, All grades: 10 (30) n (%)
  Treatment-related Nausea, Grade 3: 0 n (%)
  Treatment-related Peripheral oedema, All grades: 3 (9) n (%)
  Treatment-related Peripheral oedema, Grade 3: 0 n (%)
  Treatment-related Pyrexia, All grades: 1 (3) n (%)
  Treatment-related Pyrexia, Grade 3: 0 n (%)
  Treatment-related Rash, All grades: 4 (12) n (%)
  Treatment-related Rash, Grade 3: 0 n (%)
  Treatment-related Vomiting, All grades: 2 (6) n (%)
  Treatment-related Vomiting, Grade 3: 0 n (%)
[2]; after cycle 1 (two 200-mg QD, one 225-mg QD)
  Patients with treatment interrupted following treatment-related AEs: three
[2]; after cycle 1, all cohorts
  Diarrhoea incidence: 30%
  Epistaxis incidence: 12%
  Fatigue incidence: 30%
  Nausea incidence: 15%
[2]; all cohorts
  Grade 1/2 leukopenia and thrombocytopenia: 58–67 % of patients
  Grade 3/4 leukopenia and neutropenia: 20–25 % of patients
  Patients requiring dose reductions: Five
  Patients who discontinued treatment permanently because of treatment-related AEs: No patient
  Treatment-related grade 4 non-haematological AEs: no treatment-related grade 4 non-haematological AEs; also recorded: no treatment-related grade 4 toxicity
[2]; all cohorts and cycles
  Grade 3 or 4 leukopenia: 21%
  Grade 3 or 4 lymphopenia: 36%
  Grade 3 or 4 neutropenia: 24%
  Grade 3 or 4 thrombocytopenia: 9%
[2]; all cohorts and cycles, a single patient
  Grade 3 or 4 anaemia: 3%
[2]; all cohorts, all after the first cycle (fatigue, hyperglycaemia, hyponatremia, nausea, vomiting; n=1 each)
  Number of grade 3 non-haematological AEs: Five
[2]; during cycle 1, all cohorts
  Constipation incidence: 12%
  Diarrhoea incidence: 18%
  Fatigue incidence: 33%
  Nausea incidence: 30%
  Rash incidence: 12%
[2]; [10]
  Anaemia, Grade 1/2: 21 (64) n (%)
  Anaemia, Grade 3/4: 1 (3) n (%)
  Leukopenia, Grade 1/2: 22 (67) n (%)
  Leukopenia, Grade 3/4: 7 (21) n (%)
  Lymphopenia, Grade 1/2: 8 (24) n (%)
  Lymphopenia, Grade 3/4: 12 (36) n (%)
  Neutropenia, Grade 1/2: 14 (42) n (%)
  Neutropenia, Grade 3/4: 8 (24) n (%)
  Thrombocytopenia, Grade 1/2: 19 (58) n (%)
  Thrombocytopenia, Grade 3/4: 3 (9) n (%)
[3]; in vitro
  Activity against Rb-negative cell lines: no activity
[3]; leading to cell-cycle arrest at G1
  Anti-proliferative effect in vitro: potent anti-proliferative effect
[4]
  Emax: 88.6%
[5]
  Effect on tumour growth: significantly reduces tumour growth and leads to tumour regression
[6]
  Emax: 92.2%
[7]
  Patients with maximum on-treatment QTc ⩾500-msec or >30-msec increase from baseline: no patients
[8]; 31 evaluable patients, testicular cancer, 200 mg QD, Schedule 2/1
  Patients with partial response (PR): one
[8]; one patient with angiomyxoma, 200-mg QD cohort
  Duration of stable disease: 19 cycles
[8]; one patient with liposarcoma, 100-mg QD cohort
  Duration of stable disease: 11 cycles
[8]; one patient with liposarcoma, 225-mg QD cohort
  Duration of stable disease: ≥ 23 cycles
